Laboratory results as given in ChEMBL document CHEMBL3108668, “Antitumor activity of jujuboside B and the underlying mechanism via induction of apoptosis and autophagy” (J Nat Prod, 2014).
pIC50: −log10 of the molar value. Activity calls are given as the source filed them. No cut-off for these calls is given here.

Tests used:
AGS [1] = assay: Induction of apoptosis in human AGS cells assessed as reduction of caspase3 activation at 100 uM after 24 hrs by Western blotting analysis in presence of SP600125; type: functional, cell-based
AGS [2] = assay: Induction of autophagy in human AGS cells assessed as massive vacuole formation at 50 uM after 24 hrs by acridine orange staining-based fluorescence microscopy; type: functional, cell-based
HCT-116 [3] = assay: Induction of apoptosis in human HCT116 cells assessed as membrane blebbing at >100 uM after 24 hrs by acridine orange staining-based microscopy; type: functional, cell-based
AGS [4] = assay: Induction of apoptosis in human AGS cells assessed as early apoptotic cells at 100 uM after 24 hrs by annexin V-FITC/propidium iodide staining-based flow cytometry (reference value: 6.6%); type: functional
AGS [5] = assay: Induction of apoptosis in human AGS cells assessed as cell shrinkage at >100 uM after 24 hrs by acridine orange staining-based microscopy; type: functional
AGS [6] = assay: Induction of apoptosis in human AGS cells assessed as PARP-1 cleavage after 24 hrs by Western blotting analysis; type: functional, cell-based
AGS [7] = assay: Induction of apoptosis in human AGS cells assessed as late apoptotic cells at 25 uM after 24 hrs by annexin V-FITC/propidium iodide staining-based flow cytometry (reference value: 7.3%); type: functional
AGS [8] = assay: Cytotoxicity against human AGS cells at 100 uM after 24 hrs by MTT assay in presence of bafilomycin A1; type: functional, cell-based
HCT-116 [9] = assay: Induction of apoptosis in human HCT116 cells assessed as late apoptotic cells at 150 uM after 24 hrs by annexin V-FITC/propidium iodide staining-based flow cytometry (reference value: 2.71%); type: functional
AGS [10] = assay: Induction of apoptosis in human AGS cells assessed as apoptotic cells at 50 uM after 24 hrs by annexin V-FITC/propidium iodide staining-based flow cytometry; type: functional
AGS [11] = assay: Induction of apoptosis in human AGS cells assessed as necrotic cells at 150 uM after 24 hrs by annexin V-FITC/propidium iodide staining-based flow cytometry (reference value: 0.12%); type: functional
AGS [12] = assay: Induction of apoptosis in human AGS cells assessed as necrotic cells at 25 uM after 24 hrs by annexin V-FITC/propidium iodide staining-based flow cytometry (reference value: 0.12%); type: functional
AGS [13] = assay: Induction of apoptosis in human AGS cells assessed as early apoptotic cells at 25 uM after 24 hrs by annexin V-FITC/propidium iodide staining-based flow cytometry (reference value: 6.6%); type: functional
AGS [14] = assay: Induction of apoptosis in human AGS cells assessed as reduction of caspase3 activation at 100 uM after 24 hrs by Western blotting analysis in presence of bafilomycin A1; type: functional, cell-based
HCT-116 [15] = assay: Induction of autophagy in human HCT116 cells assessed as massive vacuole formation at 50 uM after 24 hrs by fluorescence microscopy; type: functional, cell-based
AGS [16] = assay: Induction of apoptosis in human AGS cells assessed as necrotic cells at 50 uM after 24 hrs by annexin V-FITC/propidium iodide staining-based flow cytometry (reference value: 0.12%); type: functional
AGS [17] = assay: Induction of apoptosis in human AGS cells assessed as caspase-8 activation at 25 to 150 uM after 24 hrs by Western blotting analysis; type: functional, cell-based
HCT-116 [18] = assay: Induction of apoptosis in human HCT116 cells assessed as late apoptotic cells at 100 uM after 24 hrs by annexin V-FITC/propidium iodide staining-based flow cytometry (reference value: 2.71%); type: functional
AGS [19] = assay: Induction of apoptosis in human AGS cells assessed as late apoptotic cells at 150 uM after 24 hrs by annexin V-FITC/propidium iodide staining-based flow cytometry (reference value: 7.3%); type: functional
AGS [20] = assay: Induction of apoptosis in human AGS cells assessed as reduction of caspase8 activation at 100 uM after 24 hrs by Western blotting analysis in presence of bafilomycin A1; type: functional, cell-based
[21] = Cytotoxicity against human Chang cells after 24 hrs by MTT assay; type: cell-based
HCT-116 [22] = assay: Induction of apoptosis in human HCT116 cells assessed as necrotic cells at 100 uM after 24 hrs by annexin V-FITC/propidium iodide staining-based flow cytometry (reference value: 0.68%); type: functional
AGS [23] = assay: Induction of apoptosis in human AGS cells assessed as late apoptotic cells at 50 uM after 24 hrs by annexin V-FITC/propidium iodide staining-based flow cytometry (reference value: 7.3%); type: functional
AGS [24] = assay: Induction of apoptosis in human AGS cells assessed as reduction of FasL level at 100 uM after 24 hrs by Western blotting analysis in presence of SB202190; type: functional, cell-based
AGS [25] = assay: Induction of apoptosis in human AGS cells assessed as early apoptotic cells at 150 uM after 24 hrs by annexin V-FITC/propidium iodide staining-based flow cytometry (reference value: 6.6%); type: functional
AGS [26] = assay: Induction of apoptosis in human AGS cells assessed as reduction of FasL level at 100 uM after 24 hrs by Western blotting analysis in presence of SP600125; type: functional, cell-based
AGS [27] = assay: Induction of apoptosis in human AGS cells assessed as reduction of caspase8 activation at 100 uM after 24 hrs by Western blotting analysis in presence of SP600125; type: functional, cell-based
HCT-116 [28] = assay: Induction of apoptosis in human HCT116 cells assessed as early apoptotic cells at 100 uM after 24 hrs by annexin V-FITC/propidium iodide staining-based flow cytometry (reference value: 3.61%); type: functional
AGS [29] = assay: Induction of apoptosis in human AGS cells assessed as cell rounding at >100 uM after 24 hrs by acridine orange staining-based microscopy; type: functional
AGS [30] = assay: Cell cycle arrest in human AGS cells assessed as accumulation at sub G1 phase at 150 uM after 24 hrs by propidium iodide staining-based flow cytometry; type: functional
AGS [31] = assay: Induction of apoptosis in human AGS cells assessed as reduction of caspase3 activation at 100 uM after 24 hrs by Western blotting analysis in presence of SB202190; type: functional, cell-based
HCT-116 [32] = assay: Induction of apoptosis in human HCT116 cells assessed as necrotic cells at 50 uM after 24 hrs by annexin V-FITC/propidium iodide staining-based flow cytometry (reference value: 0.68%); type: functional
AGS [33] = assay: Induction of apoptosis in human AGS cells assessed as apoptotic cells at 25 uM after 24 hrs by annexin V-FITC/propidium iodide staining-based flow cytometry; type: functional
AGS [34] = assay: Induction of apoptosis in human AGS cells assessed as increase in pJNK level at 100 uM after 24 hrs by Western blotting analysis in presence of bafilomycin A1; type: functional, cell-based
HCT-116 [35] = assay: Induction of apoptosis in human HCT116 cells assessed as early apoptotic cells at 150 uM after 24 hrs by annexin V-FITC/propidium iodide staining-based flow cytometry (reference value: 3.61%); type: functional
AGS [36] = assay: Induction of apoptosis in human AGS cells assessed as early apoptotic cells at 50 uM after 24 hrs by annexin V-FITC/propidium iodide staining-based flow cytometry (reference value: 6.6%); type: functional
HCT-116 [37] = assay: Induction of apoptosis in human HCT116 cells assessed as late apoptotic cells at 50 uM after 24 hrs by annexin V-FITC/propidium iodide staining-based flow cytometry (reference value: 2.71%); type: functional
HCT-116 [38] = assay: Induction of apoptosis in human HCT116 cells assessed as formation of apoptotic bodies at >100 uM after 24 hrs by acridine orange staining-based microscopy; type: functional, cell-based

For `CC(C)=C[C@H]1C[C@](C)(O)[C@@H]2[C@H]3CC[C@@H]4[C@@]5(C)CC[C@H](O[C@@H]6OC[C@H](O)[C@H](O[C@@H]7O[C@H](CO)[C@@H](O)[C@H](O)[C@H]7O[C@@H]7OC[C@@H](O)[C@H](O)[C@H]7O)[C@H]6O[C@@H]6O[C@@H](C)[C@H](O)[C@@H](O)[C@H]6O)C(C)(C)[C@@H]5CC[C@@]4(C)[C@@]34CO[C@@]2(C4)O1`, the Activity (AGS [1]) was “inactive”, the Activity (AGS [2]) was “Active” and the Activity (HCT-116 [3]) was “Active”. The Activity (AGS [4]) was 16.41%, the Activity (AGS [5]) was “Active” and the Activity (AGS [6]) was “Dose-dependent effect”. The Activity (AGS [7]) was 5.24%, the Activity (AGS [8]) was “Active” and the Activity (HCT-116 [9]) was 17.9%. It also gave an Activity (AGS [10]) of 15.78%, an Activity (AGS [11]) of 1.57% and an Activity (AGS [12]) of 0.55%. The Activity (AGS [13]) was 5.57%, the Activity (AGS [14]) was “Active” and the Activity (HCT-116 [15]) was “Active”. For the same compound, the Activity (AGS [16]) was 0.53%, the Activity (AGS [17]) was “Active” and the Activity (HCT-116 [18]) was 9.74%. For the same compound, the Activity (AGS [19]) was 12.12%, the Activity (AGS [20]) was “Active” and the pIC50 [21] was 3.74. The Activity (HCT-116 [22]) was 3.05%, the Activity (AGS [23]) was 7.05% and the Activity (AGS [24]) was “inactive”. The Activity (AGS [25]) was 27.43%, the Activity (AGS [26]) was “inactive” and the Activity (AGS [27]) was “inactive”. For the same compound, the Activity (HCT-116 [28]) was 37.59%, the Activity (AGS [29]) was “Active” and the Activity (AGS [30]) was 21.73%. For the same compound, the Activity (AGS [31]) was “inactive”, the Activity (HCT-116 [32]) was 0.5% and the Activity (AGS [33]) was 10.81%. The Activity (AGS [34]) was “Active”, the Activity (HCT-116 [35]) was 43.39% and the Activity (AGS [36]) was 8.73%. The Activity (HCT-116 [37]) was 2.53% and the Activity (HCT-116 [38]) was “Active”.
